Source: a melting point compilation (Tetko et al.; mined from patent text by program, amines drawn as free bases though some values may be those of a salt)

| Structure (SMILES) | melting point [°C] |
| --- | --- |
| CCOC(=O)c1[nH]c2cc(Cl)cc(Cl)c2c1N(CC(=O)c1ccccc1)Cc1ccccc1 | 174 to 175 |
| CCOC(=O)CN(Cc1cc(-n2cc(C)nc2C)ccc1[N+](=O)[O-])C(=O)C(F)(F)F | 172 to 176 |
| CCOc1ccc2nc(SC)c(C=O)cc2c1 | 124 to 125 |
| CC(C)c1cccc(C(C)C)c1OS(=O)(=O)C(OC(N)=O)c1c(C(C)C)cccc1C(C)C (stereo not drawn) | 95 to 101 |
| O=c1[nH]c2cc(Cl)c(Cl)c(-c3ccncc3)c2[nH]c1=O | > 300 |
| O=c1c2c(Cc3ccc([N+](=O)[O-])cc3)n[nH]c2c2cccnc2n1-c1ccccc1 | 254 to 255 |
| CN(C)C(=O)C(CCO)C1CCc2[nH]c3ccccc3c21 (stereo not drawn) | 135 to 137 |
| CCOC(=O)c1cc(-c2ccc(Br)cc2)n(-c2ccc(S(C)(=O)=O)cc2)n1 | 176 |
| O=C(O)c1cn(-c2ccc(F)cc2)c2cc(N3CCC(N=Cc4ccc([N+](=O)[O-])cc4)C3)c(F)cc2c1=O (stereo not drawn) | 247 to 248 |
| COC(=O)c1cc(N)ccc1O | 93 to 95 |
| CCCCc1ncc(/C=C(\Cc2cccs2)C(=O)O)n1Cc1ccc(C(=O)O)cc1Cl | 234 to 236 |
| Cc1cccc(NC(=O)NCC(=O)N(c2ccccc2)C(C(=O)OC(C)(C)C)c2cccc(Cl)c2)c1 (racemic) | 100 |
| CC(C)CC1(C(CCN2C(=O)c3ccc(N)cc3C2=O)C(=O)NO)CCN(CCc2ccccc2)C1=O (stereo not drawn) | 187 to 188 |
| CCOc1ccc(C=NO)cc1 | 81 to 86 |
| CC(C)NC(=O)c1cccc(I)c1C(=O)Nc1cc(C(F)(F)F)nn1-c1ccccc1Cl | 226 to 228 |
| Cc1noc(NS(=O)(=O)c2cccc(F)c2)c1Br | 125 to 128 |
| Cc1cc(C(=O)CCc2cc(-c3ccc(C(F)(F)F)cc3)nn2C(C)C)ccc1OCC(=O)O | 160 to 163 |
| CC1OC(=O)Nc2ccc(-c3cccc(F)c3)cc21 (stereo not drawn) | 160 to 161 |
| COc1c(C)cc([N+](=O)[O-])c(NC(C)C)c1[N+](=O)[O-] | 77.5 to 79 |
| CC(C)NC(Nc1cc(C(F)(F)F)cc(C(F)(F)F)c1)=C(C#N)S(C)(=O)=O | 188 to 191 |
| Cc1cc(Cl)cc(C(=NCCC(=O)O)c2ccc(Cl)cc2)c1O | 138 |
| Cc1ccc(-c2ccnc3c(C(=O)c4cccs4)cnn23)cc1NC(=O)OC(C)C | 198 to 200 |
| CC(=O)OC(C)c1ncnc(Cl)c1I (stereo not drawn) | 55 to 58 |
| NC(=O)c1ccc2c(c1)S(=O)(=O)N=CN2C1CC1 | 278 to 281 |
| COc1ccc(-c2cc3ccccc3[nH]2)c(C)c1 | 131 |

| Structure (SMILES) | melting point [°C] |
| --- | --- |
| O=C(Nc1ccc(O)cc1)c1ccc(O)cc1 | 180 to 185 |
| CCCC(NC(=O)Cc1ccc(C(=O)O)c(OCC)c1)c1ccccc1N1CCCCC1 (stereo not drawn) | 87 to 89 |
| CS(=O)(=O)NNc1ccnc2c(NC(=O)c3c(Cl)cccc3Cl)cccc12 | 156 to 164 |
| Cc1ccc(C)n1-c1ccc([C@@H](O)CN2C(=O)c3ccccc3C2=O)cn1 | 167 to 170 |
| Cc1cc2c(Cl)ccc(-n3c(=O)cc(C(F)(F)F)n(C)c3=O)c2o1 | 206 to 207 |
| C=CCC(=O)Nc1n[nH]c2cc(Cl)ccc12 | 150 |
| Cc1cnc(C(=O)NCCc2ccc(S(N)(=O)=O)cc2)cn1 | 190 to 200 |
| CN(C)C=Cc1[nH]c(=O)ccc1C#N | 298 to 300 |
| CC1(C)NC(=O)N(c2ccc(I)c(C(F)(F)F)c2)C1=O | 164 to 165 |
| Cc1c(C#N)c(-c2ccc(C#N)cc2)c(C)n1Cc1cnc(Cl)c(C(O)C(F)(F)F)c1 (stereo not drawn) | 200 to 201 |
| CCOC(=O)c1cnc2n(c1=O)C(C)CCC2=NNC(=O)c1ccc2c(c1)OCO2 (stereo not drawn) | 183 to 185 |
| O=C(NCc1ccc(Cl)cc1)c1cn(Cc2cccnc2)c2sc(CN3CCOCC3)cc2c1=O | 214 to 215 |
| CCNc1cncc(C#N)c1 | 110 |
| CCCc1c(C(C)C)cc(C(C)C)c(C(C)O)c1-c1ccc(F)cc1 (single isomer, unassigned; (+)) | 114 to 116 |
| CCOC(=O)c1cnn2c1c(Cl)nc1ccccc12 | 105 to 106 |
| CN(C)CC=Cc1ccc2c(c1)CCCN2C(=O)c1ccc(-c2ccc(Cl)cc2)cc1 | 162 to 164 |
| CN(C)c1ccc(NC(=O)NC2CCCC2)c(C(=O)NCC2CCN(C(c3ccccc3)c3ccccc3)CC2)c1 | 211 to 213 |
| CN1CCN(c2cccc(-c3cnn4c(N)c(Cc5cccc(Br)c5)cnc34)c2)CC1 | 170 to 171 |
| O=C(O)c1cc(=O)c2c(OCC(O)COc3ccc(Br)cc3)cccc2o1 (stereo not drawn) | 192 to 194 |
| CN(C)C1(c2cccs2)CC=C(c2[nH]c3ccccc3c2CCc2ccncc2)CC1 (stereo not drawn) | 189 to 193 |
| CC(C)Oc1c(C(=O)Nc2nnn[nH]2)[nH]c(Br)c1Br | 194 to 196 |
| FC(=C(Cl)Cl)c1ccc(-c2ccccc2)s1 | 67 to 68.5 |
| CCCc1c(OCCCOc2ccc(NC(=O)C(=O)O)cc2OC)ccc(C(C)=O)c1O | 125 to 127 |
| COC(=O)C(C)(N)Cc1c[nH]c2ccc(OC)cc12 (racemic) | 131 to 132 |
| COc1cc(C2C3=C(COC3=O)Nc3c2cc(OC)c(OC)c3OC)ccc1O (stereo not drawn) | 290 to 291 |

| Structure (SMILES) | melting point [°C] |
| --- | --- |
| NC(=O)N1CC(Oc2ccc(Cl)c(Cl)c2)C1 | 179 to 184 |
| Cc1c(Cc2cnc[nH]2)cccc1NS(C)(=O)=O | 224 |
| CN(C)c1cccc(C(=O)Nc2ccc3ccc(Cl)nc3n2)c1 | 215 |
| COc1ccc([N+](=O)[O-])c(NCCC[C@H](N)C(=O)O)c1 | 245 to 246 |
| O=C(Nc1cnc2c(c1)OCCN2)c1cc2cc(F)ccc2n1Cc1cccc(F)c1 | 265 to 266 |
| COC(=O)Cc1cc(OCc2ccccc2)ccc1OC | 74 to 75 |
| CCN(CC)CCOC(=O)C1=C(C)Nc2ccnc(OC(C)C)c2C1c1ccccc1C(F)(F)F (stereo not drawn) | 198 to 200 |
| COc1ccc(C(CCCCl)=NNC(N)=S)cc1 | 137 to 140 |
| Cn1cncc1C(O)(c1ccc(Cl)cc1)c1ccc2c(c1)c(-c1cccc(Cl)c1)cc(=O)n2C (stereo not drawn) | 234 |
| Cn1nc(C#N)c(Nc2ccc(Br)cc2[N+](=O)[O-])n1 | 162 to 164 |
| CCOC(=O)C1=C(C=O)Nc2ccnc(OC(C)C)c2C1c1ccccc1C(F)(F)F (stereo not drawn) | 108 to 109 |
| CC(C)(C)c1cc(SCN2C(=O)CC(Sc3cc(C(C)(C)C)c(O)c(C(C)(C)C)c3)C2=O)cc(C(C)(C)C)c1O (stereo not drawn) | 138 to 140 |
| CCS(=O)(=O)CCc1ccc(C(=O)c2ccc(Cl)cc2)cc1 | 117 to 118 |
| Cc1cc(NC(=O)NC(=O)c2c(Cl)cccc2Cl)nc(C)c1-c1ccccc1 | 230 to 235 |
| COC(=O)C(O)C1OC(n2cnc3c(N)ncnc32)C(O)C1O (stereo not drawn) | 215 to 217 |
| CN(CCc1cccc(O)c1)c1cnc(-c2ccccc2)c(-c2ccccc2)n1 | 158 to 161 |
| O=C1CCC(CC(O)C(=O)OCc2ccccc2)N1 (stereo not drawn) | 95 to 96 |
| COc1ccc(CN2CCN(C(=S)C3(C)CCc4c(C)c(O)c(C)c(C)c4O3)CC2)c(OC)c1OC (stereo not drawn) | 124 to 125 |
| CCCc1ccc2oc(Cc3ccc(O)cc3)c(C)c2c1O | 117 to 120 |
| O=c1[nH]c2ccccc2c2c(C(O)CC3CCCCC3)n(-c3ccccc3)nc12 (stereo not drawn) | 254 to 259 |
| Cc1ccccc1C(=O)c1ccc(Nc2ccccc2NC(=O)CO)cc1Cl | 127 to 129 |
| C=CCOc1ccc2c(C)c(C#N)c(=O)oc2c1C | 172 |
| Brc1ccc(SC2CCN(C(c3ccccc3)(c3ccccc3)c3ccccc3)CC2)cc1 | 174 to 175 |
| COc1ccc(S(=O)(=O)N(CC(N)=O)c2ccc(Cl)cc2Cc2ccccc2Cl)cc1 | 150 |
| CCc1ccc(O)c(C(=NO)c2ccc(Cl)cc2)c1 | 117 |

| Structure (SMILES) | melting point [°C] |
| --- | --- |
| N#Cc1nn(-c2c(Cl)cc(C(F)(F)F)cc2Cl)c(Br)c1S(=O)(=O)C(F)(F)F | 136 to 137 |
| Clc1ccc(-c2nc3n(c2Cl)CCCC3)c(Cl)c1 | 99 to 101 |
| Cc1cc(N2CCCC(O)C2)c(S(C)(=O)=O)cc1C(=O)N=C(N)N (stereo not drawn) | 194 to 196 |
| Cc1cc2c(cc1C)-n1ccnc1C=C(c1ccc(-n3c(C)nc4cnccc43)cc1)N2 | 193 to 195 |
| O=C(Nc1c([N+](=O)[O-])cnn1-c1c(Cl)cc(S(=O)(=O)C(F)(F)F)cc1Cl)C(Cl)Cl | 138 to 142 |
| CCCc1ncnc(O)c1Cc1ccc(-c2ccccc2C#N)cc1 | 158 |
| CC(C)NC(=S)Nc1cccc(NC(=O)Nc2ccc(Cl)cc2)c1 | 197 to 198 |
| CCOC(Nc1ccccc1)(OCC)c1ccnc(C(=O)c2ccc(Cl)c(Cl)c2)c1 | 113 to 114 |
| Cc1cc(CN2CCN(c3ccc(C(=O)NC4CC4)cc3Cl)CC2)cc2c1OC(C)C(=O)N2 (stereo not drawn) | 252 to 255 |
| N#Cc1cc(C2=NOC(c3cc(Cl)cc(Cl)c3)(C(F)(F)F)C2)ccc1-n1cncn1 (stereo not drawn) | 118 to 125 |
| COc1ccc(-c2cc3c4n(ccc-3n2)CC(C)=N4)cc1 | 168 |
| CC(C)(C)OC(=O)NCCNC(=O)c1cccc(Br)n1 | 108 to 109 |
| Cc1cc2nc(NC(=O)NCCN3CCOCC3)sc2cc1OC(C)c1c(Cl)ccc(F)c1Cl (stereo not drawn) | 270 to 276 |
| COC(=O)CCC#Cc1cc(Cl)ccc1N | 67 |
| COc1ccc(Cc2ccc(CO)cc2)cc1 | 68 to 72 |
| CCOC(=O)[C@@]1(C)CSC(c2ccc(OCCOCCOC)cc2O)=N1 | 68 to 70 |
| O=C(NO)[C@H]1CN(c2ccc(N3CCOCC3)c(F)c2)C(=O)O1 | 141 to 143 |
| Cc1cc(=O)n(-c2cc(C(=O)O)c(Cl)cc2F)c(=O)n1C(F)F | 247 to 248 |
| CCCCCCCCCCC(O)COc1ccc(N2CCS(=O)(=O)CC2)cc1 (stereo not drawn) | 84 |
| O=[N+]([O-])c1cc(O)ccc1NCCO | 142 |
| O=C(O)C1CCc2c(c3cccc(F)c3n2C(=O)c2ccccc2)C1 (stereo not drawn) | 250 to 251 |
| Fc1ccc(C2CCC3(CC2)OCCO3)cc1 | 51 to 53 |
| FC(F)(F)c1ccc(-c2nocc2CCl)cc1 | 84 to 85 |
